Data as given in patent US9186390B2, “Methods and uses of TIE2 binding and/or activating agents” (Sunnybrook Health Sciences Center, priority 2010, dated 2015).
Entries after “also recorded” stand apart in the source; their conditions may differ.

System: AT derm mice (pTek-tTA:pTetOS-Tek)
Assay: Atopic dermatitis (AT derm) transgenic mouse model and wild-type littermates, 30-day Vasculotide treatment
Type: in vivo, CD1 mice
From the text: Briefly, construction of the driver transgene, pTek-tTA, and the responder transgenes, pTetOS-Tek, pTetos-Ang1, and pTetos-Ang2 have been described previously. All transgenic lines were maintained and genotyped as previously described (Voskas et al. (2005) Am. J. Pathol. 166(3):843-855, Ward et al. (2004) Am. J. Pathol. 165(3):889-899, Bureau et al. (2006) Am. J. Physiol. Heart Circ. Physiol. 291(2):H948-965). Males were housed with a single female for 14 to 20 days and then separated into individual cages. CD1 mice (an outbred mouse line) were maintained in a barrier facility. All adult mice used in these studies were 2 to 6 months old.
Mouse skin tissue was fixed in 4% paraformaldehyde (Sigma, St. Louis, Mo.) for 16 hours at 4 degrees Celsius, and transferred to 70% ethanol. Tissues were subsequently paraffin embedded and sectioned at 4 μM on SuperFrost glass slides. Tissue slides were stained for hematoxylin and eosin using standard techniques. For immunohistochemistry, anti-E-Selectin (rat; Pharmingen, La Jolla, Calif.), anti-VCAM1 (rat; Pharmingen), anti-ICAM1 (Hamster; Pharmingen, La Jolla, Calif.), primary antibodies were detected using biotinylated secondary antibodies as described in the Vectastain Elite ABC kit (Vector Laboratories, Burlingame, Calif.). Slides were processed and counterstained with methyl green using standard techniques. Slides were analyzed and photos were processed using a Leica compound light microscope coupled to a Leica DFC300FX camera (Wetzlar, Germany). Skin tissue was taken (biopsy) at day 0, prior to initiation of treatment and at 30 days. Gross phenotypic examination was conducted and mice were photographed in a standard format using a Digital Canon Eos Rebel.
Blood was collected from all mice on day 0 (prior to treatment) and day 30 (after 30 days of treatment). On day 0, approximately 50 μl was collected via tail vein puncture into a lithium heparin micro tube. Day 30 blood was collected via cardiac puncture into a lithium heparin micro tube. Both blood samples were prepared for storage and subsequent analysis using Phosflow Lyse/Fix Buffer (BD Biosciences, Franklin Lakes, N.J.), according to manufacturers instructions. Cells were stained for IgE versus free FITC and characteristic populations of basophils and eosinophils were identified.
Normal and double transgenic (pTek-tTA:pTetOS-Tek) CD1 mice were injected intra peritoneally with either sterile PBS, pH 7.4 (vehicle) or Vasculotide (40 μg/kg) every three days for the period of 30 days. Mice were observed closely during this period for phenotypic resolution and/or any potential ill effects.
Plasma was collected in lithium/heparin microtubes from all mice following 30 days of treatment with Vasculotide or vehicle. Plasma was diluted 1:8 in sample diluent (BD Biosciences, Franklin Lakes, N.J.). A multiplex analysis of 12 different mouse cytokines was examined according to manufacturer's instructions. Analysis and cytokine/chemokine quantification was performed using the manufacturers FCAP software package (BD Biosciences, Franklin Lakes, N.J.).
Blood was collected from mice as previously described. Separated plasma was diluted 1:4 in calibrator diluent according to manufacturer's specifications (R&D Biosystems, Minneapolis, Minn. USA). All aspects of the assay were conducted according to manufacturer's directions. Quantification of plasma eotaxin concentrations was performed by linear regression analysis from assessment of defined amounts of eotaxin standard.

[1] = AT derm and wild-type mice, 30 days treatment
[2] = AT derm mice, skin and underlying muscle, 40 μg/kg every 3 days for 30 days
[3] = wild-type (or single transgenic) mice, 30 days, p=0.0027

## Vasculotide: Modified T7 peptide (CHHHRHSF, SEQ ID NO:2) conjugated to 10 kDa tetrameric polyethylene glycol-maleimide; Tie2 binding peptide mimetic
40 μg/kg every 3 days for 30 days, vs PBS
  body weight change during 30-day treatment: no statistically significant alteration; also recorded: no statistically detectable alteration
AT Derm mice vs PBS treated AT Derm mice, p=0.0208
  plasma eotaxin levels (ELISA): statistically significant decrease
[1]
  basophil numbers in peripheral blood (FACS): marked reduction; also recorded: Decreased numbers
  eosinophil numbers in peripheral blood (FACS): marked reduction; also recorded: Decreased numbers
AT derm and wild-type mice, treated or untreated
  number of granulocytes in the bone marrow: unchanged
AT derm mice (moderate or severe), 40 μg/kg every 3 days for 30 days
  gross phenotype: erythema, micro-haemorrhages of the ears, scaly plaque formation on the tail: complete or almost complete resolution; also recorded: Gross phenotypic improvement
AT derm mice vs PBS-treated AT derm mice, 30 days, p=0.0492
  plasma IL-1β (cytometric bead array): reduction
AT derm mice, 40 μg/kg every three days
  erythema after the third dose (9 days): reduction in erythema
AT derm mice, 30 days treatment vs PBS
  epidermal hyperplasia and infiltration of leukocytes (H&E staining of skin): dramatic reduction; also recorded: marked reduction
[2]
  E-selectin expression (immunohistochemistry): very low or absent levels of positive staining; also recorded: dramatic reduction
  ICAM1 expression (immunohistochemistry): very low or absent levels of positive staining; also recorded: dramatic reduction
  VCAM1 expression (immunohistochemistry): very low or absent levels of positive staining; also recorded: dramatic reduction
Control and AT-Derm mice, 30 days treatment
  neutrophils in peripheral blood (FACS): No effects
[3]
  plasma IL-5 (cytometric bead array): statistically significant decrease
  plasma IL-13 (cytometric bead array): statistically significant decrease
wild-type (or single transgenic) mice, 30 days, p=0.003
  plasma MIP1b (cytometric bead array): statistically significant decrease
wild-type (or single transgenic) mice, 30 days, p=0.0079
  plasma IL-9 (cytometric bead array): statistically significant decrease
wild-type (or single transgenic) mice, 30 days, p=0.0116
  plasma MCP1 (cytometric bead array): statistically significant decrease
wild-type (or single transgenic) mice, 30 days, p=0.0117
  plasma MIG (cytometric bead array): statistically significant decrease
wild-type (or single transgenic) mice, 30 days, p=0.0309
  plasma TNF-α (cytometric bead array): statistically significant decrease
wild-type (or single transgenic) mice, 30 days, p=0.0473
  plasma MIP1a (cytometric bead array): statistically significant decrease
wild-type (or single transgenic) mice, 30 days, p=0.0492
  plasma IL-17 (cytometric bead array): statistically significant decrease
wild-type (or single transgenic) mice, 30 days, p=0.0494
  plasma IL-12/IL-23 p40 (cytometric bead array): statistically significant decrease
wild-type or single transgenic mice, 40 μg/kg every three days
  overt effects / appearance of single transgenic or wild-type littermates: no overt effects; also recorded: indistinguishable from PBS-treated
